In patent US11866450B2, “Modulators of Cystic Fibrosis Transmembrane Conductance regulator, pharmaceutical compositions, methods of treatment, and process for making the modulators” (priority 2018, dated 2024):

Biological target: CFTR-mediated chloride transport (Homo sapiens, UniProt P13569)
Type: cell-based
Details: enteroid cells incubated with test compound 18-24 hours, acute 10 μM forskolin and 300 nM Compound III; for Max. Activity: % of chloride transport with 3 μM Compound A, 3 μM Compound II and 300 nM acute Compound III triple combination control
Summary of the method: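 Human intestinal enteroid cells incubated with compound 18–24 h at 37° C., then membrane potential dye (FLIPR) read 15 min after chloride-free stimulation with 10 μM forskolin, 100 μM IBMX and 300 nM Compound III. AUC expressed as % of triple-combination control (3 μM Compound A, 3 μM Compound II, 300 nM Compound III).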

Sequence of CFTR-mediated chloride transport (P13569 whole entry, looked up): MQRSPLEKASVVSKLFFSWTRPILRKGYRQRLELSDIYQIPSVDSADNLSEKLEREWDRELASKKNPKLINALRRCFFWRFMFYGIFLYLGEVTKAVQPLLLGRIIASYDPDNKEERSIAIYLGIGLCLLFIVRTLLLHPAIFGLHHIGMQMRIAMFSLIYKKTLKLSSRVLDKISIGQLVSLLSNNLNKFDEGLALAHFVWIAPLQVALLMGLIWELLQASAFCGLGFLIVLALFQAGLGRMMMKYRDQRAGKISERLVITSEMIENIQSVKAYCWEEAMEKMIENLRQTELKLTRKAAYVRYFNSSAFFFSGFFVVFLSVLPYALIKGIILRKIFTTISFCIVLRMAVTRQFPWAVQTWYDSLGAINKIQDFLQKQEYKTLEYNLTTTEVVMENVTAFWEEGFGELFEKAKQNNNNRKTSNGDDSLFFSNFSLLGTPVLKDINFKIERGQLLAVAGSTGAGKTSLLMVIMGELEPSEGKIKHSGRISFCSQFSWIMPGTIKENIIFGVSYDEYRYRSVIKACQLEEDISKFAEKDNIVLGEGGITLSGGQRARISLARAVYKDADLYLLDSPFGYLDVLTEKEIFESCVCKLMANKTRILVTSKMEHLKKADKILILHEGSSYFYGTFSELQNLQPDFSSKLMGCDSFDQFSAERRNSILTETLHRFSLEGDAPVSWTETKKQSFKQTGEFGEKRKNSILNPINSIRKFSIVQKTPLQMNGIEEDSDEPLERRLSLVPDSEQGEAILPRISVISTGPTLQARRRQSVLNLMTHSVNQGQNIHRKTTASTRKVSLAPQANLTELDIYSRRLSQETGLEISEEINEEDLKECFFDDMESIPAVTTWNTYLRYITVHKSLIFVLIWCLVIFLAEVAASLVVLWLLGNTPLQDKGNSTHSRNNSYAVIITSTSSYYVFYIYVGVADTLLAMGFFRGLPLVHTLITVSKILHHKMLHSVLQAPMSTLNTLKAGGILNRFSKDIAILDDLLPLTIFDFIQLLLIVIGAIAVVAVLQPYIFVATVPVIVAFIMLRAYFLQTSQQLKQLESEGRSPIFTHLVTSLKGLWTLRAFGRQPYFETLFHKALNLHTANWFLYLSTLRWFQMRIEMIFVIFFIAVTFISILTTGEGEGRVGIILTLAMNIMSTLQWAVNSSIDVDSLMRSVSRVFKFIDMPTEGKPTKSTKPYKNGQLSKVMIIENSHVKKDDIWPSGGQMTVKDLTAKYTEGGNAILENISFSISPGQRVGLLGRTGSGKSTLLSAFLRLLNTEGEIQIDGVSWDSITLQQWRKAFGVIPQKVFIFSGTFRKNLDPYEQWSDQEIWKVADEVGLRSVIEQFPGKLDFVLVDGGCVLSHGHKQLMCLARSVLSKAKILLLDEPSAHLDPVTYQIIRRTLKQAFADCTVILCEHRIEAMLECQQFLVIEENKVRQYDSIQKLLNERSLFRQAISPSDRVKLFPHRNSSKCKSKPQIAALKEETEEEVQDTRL

SMILES	EC50 [µM]	Max. Activity
Cc1cn2nc1S(=O)(=O)NC(=O)c1ccc(-n3ccc(OCCC(C4CC4)C4CC4)n3)nc1N1C[C@H](CCC2)CC1(C)C (single isomer, unassigned) [Compound 202, 4-[3-(3,3-dicyclopropylpropoxy)-1H-pyrazol-1-yl]-12,20,20-trimethyl-10λ^6-thia-1,3,9,14,22-pentaazatetracyclo[16.2.1.111,14.02,7]docosa-2(7),3,5,11(22),12-pentaene-8,10,10-trione]	< 1	++ (++ is 30-60%)
CN1CCC[C@H]2CN(c3nc(-n4ccc(OCCC(C5CC5)C5CC5)n4)ccc3C(=O)NS(=O)(=O)c3cccc1n3)C(C)(C)C2 (single isomer, unassigned) [Compound 203, 8-[3-(3,3-Dicyclopropylpropoxy)-1H-pyrazol-1-yl]-12,12,18-trimethyl-2λ^6-thia-3,9,11,18,23-pentaazatetracyclo[17.3.1.111,14.05,10]tetracosa-1(22),5,7,9,19(23),20-hexaene-2,2,4-trione]	< 1	+++ (+++ is >60%)
CN1CCC[C@H]2CN(c3nc(-n4ccc(OCCC(C5CC5)C5CC5)n4)ccc3C(=O)NS(=O)(=O)c3cccc1n3)C(C)(C)C2 (single isomer, unassigned) [Compound 204, 8-[3-(3,3-dicyclopropylpropoxy)-1H-pyrazol-1-yl]-12,12,18-trimethyl-2λ^6-thia-3,9,11,18,23-pentaazatetracyclo[17.3.1.111,14.05,10]tetracosa-1(22),5,7,9,19(23),20-hexaene-2,2,4-trione]	> 3	+ (+ is <30%)
CC1(C)C[C@H]2CCCn3ccc(n3)S(=O)(=O)NC(=O)c3ccc(-n4ccc(OCCC5C(C)(C)C5(C)C)n4)nc3N1C2 (single isomer, unassigned) [Compound 206, 20,20-dimethyl-4-{3-[2-(2,2,3,3-tetramethylcyclopropyl)ethoxy]-1H-pyrazol-1-yl}-10λ^6-thia-1,3,9,14,22-pentaazatetracyclo[16.2.1.111,14.02,7]docosa-2(7),3,5,11(22),12-pentaene-8,10,10-trione]	< 1	+ (+ is <30%)
CC1(C)C[C@H]2CCCn3ccc(n3)S(=O)(=O)NC(=O)c3ccc(-n4ccc(OCCC5C(C)(C)C5(C)C)n4)nc3N1C2 (single isomer, unassigned) [Compound 207, 20,20-dimethyl-4-{3-[2-(2,2,3,3-tetramethylcyclopropyl)ethoxy]-1H-pyrazol-1-yl}-10λ^6-thia-1,3,9,14,22-pentaazatetracyclo[16.2.1.111,14.02,7]docosa-2(7),3,5,11(22),12-pentaene-8,10,10-trione]	< 1	+++ (+++ is >60%)
C[C@@H]1CC[C@H]2CN(c3nc(N4CCN(CCC(C)(C)C)C4=O)ccc3C(=O)NS(=O)(=O)c3cccc(n3)N1)C(C)(C)C2 (single isomer, unassigned) [Compound 215, 8-[3-(3,3-dimethylbutyl)-2-oxoimidazolidin-1-yl]-12,12,17-trimethyl-2λ^6-thia-3,9,11,18,23-pentaazatetracyclo[17.3.1.111,14.05,10]tetracosa-1(22),5,7,9,19(23),20-hexaene-2,2,4-trione]	> 3	+ (+ is <30%)
C[C@@H]1CC[C@H]2CN(c3nc(N4CCN(CCC(C)(C)C)C4=O)ccc3C(=O)NS(=O)(=O)c3cccc(n3)N1)C(C)(C)C2 (single isomer, unassigned) [Compound 216, 8-[3-(3,3-dimethylbutyl)-2-oxoimidazolidin-1-yl]-12,12,17-trimethyl-2λ^6-thia-3,9,11,18,23-pentaazatetracyclo[17.3.1.111,14.05,10]tetracosa-1(22),5,7,9,19(23),20-hexaene-2,2,4-trione]	< 1	+++ (+++ is >60%)
C[C@@H]1CC[C@H]2CN(c3nc(N4CCN(CCC(C)(C)C)C4=O)ccc3C(=O)NS(=O)(=O)c3cccc(n3)N1)C(C)(C)C2 (single isomer, unassigned) [Compound 218, 8-[3-(3,3-dimethylbutyl)-2-oxoimidazolidin-1-yl]-12,12,17-trimethyl-2λ^6-thia-3,9,11,18,23-pentaazatetracyclo[17.3.1.111,14.05,10]tetracosa-1(22),5,7,9,19(23),20-hexaene-2,2,4-trione]	> 3	+ (+ is <30%)
C[C@@H]1CC[C@H]2CN(c3nc(N4CCN(CCC(C)(C)C)C4=O)ccc3C(=O)NS(=O)(=O)c3cccc(n3)N1)C(C)(C)C2 (single isomer, unassigned) [Compound 219, 8-[3-(3,3-dimethylbutyl)-2-oxoimidazolidin-1-yl]-12,12,17-trimethyl-2λ^6-thia-3,9,11,18,23-pentaazatetracyclo[17.3.1.111,14.05,10]tetracosa-1(22),5,7,9,19(23),20-hexaene-2,2,4-trione]	< 1	++ (++ is 30-60%)
CC1(C)C[C@H]2CCNc3cccc(n3)S(=O)(=O)NC(=O)c3ccc(-n4ccc(OCCCC5(C(F)(F)F)CC5)n4)nc3N1C2 (single isomer, unassigned) [Compound 234, 7,7-dimethyl-11-(3-{3-[1-(trifluoromethyl)cyclopropyl]propoxy}-1H-pyrazol-1-yl)-17λ^6-thia-2,8,10,16,22-pentaazatetracyclo[16.3.1.15,8.09,14]tricosa-1(22),9,11,13,18,20-hexaene-15,17,17-trione]	< 1	++ (++ is 30-60%)
CC1(C)C[C@H]2CCNc3cccc(n3)S(=O)(=O)NC(=O)c3ccc(-n4ccc(OCCCC5(C(F)(F)F)CC5)n4)nc3N1C2 (single isomer, unassigned) [Compound 235, 7,7-dimethyl-11-(3-{3-[1-(trifluoromethyl)cyclopropyl]propoxy}-1H-pyrazol-1-yl)-17λ^6-thia-2,8,10,16,22-pentaazatetracyclo[16.3.1.15,8.09,14]tricosa-1(22),9,11,13,18,20-hexaene-15,17,17-trione]	< 1	+++ (+++ is >60%)
CC1(C)C[C@@H]2CCCNc3cccc(n3)S(=O)(=O)NC(=O)c3ccc(N4CCN(C[C@H]5CC[C@@H](C(F)(F)F)CC5)C4=O)nc3N1C2 (single isomer, unassigned) [Compound 239]	< 1	+ (+ is <30%)
CC1(C)C[C@@H]2CCCNc3cccc(n3)S(=O)(=O)NC(=O)c3ccc(N4CC[C@H](OCCC56CC7CC(CC(C7)C5)C6)C4=O)nc3N1C2 (single isomer, unassigned) [Compound 240]	< 1	++ (++ is 30-60%)
CC1(C)C[C@@H]2CCCNc3cccc(n3)S(=O)(=O)NC(=O)c3ccc(N4CC[C@H](OCCC56CC7CC(CC(C7)C5)C6)C4=O)nc3N1C2 (single isomer, unassigned) [Compound 241]	< 1	++ (++ is 30-60%)
CC1(C)C[C@@H]2CCCNc3cccc(n3)S(=O)(=O)NC(=O)c3ccc(N4CC[C@H](OCCCC5(C(F)(F)F)CC5)C4=O)nc3N1C2 (single isomer, unassigned) [Compound 242]	< 1	++ (++ is 30-60%)
CC1(C)C[C@@H]2CCCNc3cccc(n3)S(=O)(=O)NC(=O)c3ccc(N4CC[C@H](OCCCC5(C(F)(F)F)CC5)C4=O)nc3N1C2 (single isomer, unassigned) [Compound 243]	< 1	+++ (+++ is >60%)
CC1(C)C[C@@H]2CCCNc3cccc(n3)S(=O)(=O)NC(=O)c3ccc(N4CC[C@H](OCC56CC7CC(CC(C7)C5)C6)C4=O)nc3N1C2 (single isomer, unassigned) [Compound 244]	< 1	++ (++ is 30-60%)
CC1(C)C[C@@H]2CCCNc3cccc(n3)S(=O)(=O)NC(=O)c3ccc(N4CC[C@H](OCC56CC7CC(CC(C7)C5)C6)C4=O)nc3N1C2 (single isomer, unassigned) [Compound 245]	< 1	+++ (+++ is >60%)
CC(C)(C)CCCO[C@H]1CCN(c2ccc3c(n2)N2C[C@@H](CCCNc4cccc(n4)S(=O)(=O)NC3=O)CC2(C)C)C1=O (single isomer, unassigned) [Compound 246]	< 1	++ (++ is 30-60%)
CC(C)(C)CCCO[C@H]1CCN(c2ccc3c(n2)N2C[C@@H](CCCNc4cccc(n4)S(=O)(=O)NC3=O)CC2(C)C)C1=O (single isomer, unassigned) [Compound 247]	< 1	+++ (+++ is >60%)
CC(C)C(COc1ccn(-c2ccc3c(n2)N2C[C@@H](CC2(C)C)OCCNc2cccc(n2)S(=O)(=O)NC3=O)n1)C(C)C (single isomer, unassigned) [Compound 248, 12,12-dimethyl-8-{3-[3-methyl-2-(propan-2-yl)butoxy]-1H-pyrazol-1-yl}-15-oxa-2λ^6-thia-3,9,11,18,23-pentaazatetracyclo[17.3.1.111,14.05,10]tetracosa-1(23),5(10),6,8,19,21-hexaene-2,2,4-trione]	< 1	++ (++ is 30-60%)
CC(C)C(COc1ccn(-c2ccc3c(n2)N2C[C@@H](CC2(C)C)OCCNc2cccc(n2)S(=O)(=O)NC3=O)n1)C(C)C (single isomer, unassigned) [Compound 249, 12,12-dimethyl-8-{3-[3-methyl-2-(propan-2-yl)butoxy]-1H-pyrazol-1-yl}-15-oxa-2λ^6-thia-3,9,11,18,23-pentaazatetracyclo[17.3.1.111,14.05,10]tetracosa-1(23),5(10),6,8,19,21-hexaene-2,2,4-trione]	< 1	+++ (+++ is >60%)
